Holding throughout (format): organism-based
Settings in all cases: in vivo

Series [1] is described as follows: Acute toxicity in ip dosed rat.
For the next series, the species on record is Homo sapiens. In words: Acute toxicity in human.
A short description of series [2]: Acute toxicity in po dosed mouse.

For `[O-][n+]1ccc(O)c(O)c1-c1c(O)c(O)cc[n+]1[O-]` [ORELLANINE], the LD50 was found to be 5 mg/kg in series [1], 29 g in the series filed under Homo sapiens and 12 mg/kg in series [2].

(Values after ChEMBL document CHEMBL2151028, “Analysis of the mushroom nephrotoxin orellanine and its glucosides” (J Nat Prod, 2012).)
